{
  "source": "patent US11634447B2",
  "about": "(priority 2012, dated 2023)",
  "system": "bacterial strain LF82 binding to the glycoprotein BSA-(Mannose)3",
  "assay": "Bacterial Binding Assay (BBA)",
  "type": "cell-based, Escherichia coli",
  "conditions": "read-out: Bacterial Binding Assay IC50, LF82/Luciferase strain binding to BSA-(Man)3 coated plates, luminescence",
  "summary_of_the_method": "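Inhibition of LF82/luciferase E. coli adhesion is read as luminescence after washing off unbound cells. Compound and bacteria (10^7 per well) are co-incubated 40-75 min at room temperature on wells coated with 0.5-2 μg/mL BSA-(Man)3, with BSA-only wells as background; IC50 values derived.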",
  "data": [
    {"smiles": "OC[C@H]1O[C@H](Cc2ccc(-c3ccc(C[C@H]4O[C@H](CO)[C@@H](O)[C@H](O)[C@@H]4O)cc3)cc2)[C@@H](O)[C@@H](O)[C@@H]1O", "note": "[Compound 41, ((2R,3S,4R,5S,6R)-2-(Hydroxymethyl)-6-[[4-[4-[[(2R,3S,4R,5S,6R)-3,4,5-trihydroxy-6-(hydroxymethyl)tetrahydropyran-2-yl]methyl]phenyl]phenyl]methyl]tetrahydropyran-3,4,5-triol)]", "values": [
      {"measurement": "IC50", "value": 550, "unit": "nM"}
    ]}
  ]
}
